From patent US9289443B2, “Pharmaceutical composition and method for preventing or treating hepatitis C” (INDUSTRIAL TECHNOLOGY RESEARCH INSTITUTE, priority 2010, dated 2016)

Assays:
[1] = test system: HCV replicon system (Huh-luc/neo-ET cell carrying I389luc-ubi-NS3-3'/ET); experiment: Inhibition of the HCV replication by determining the firefly luciferase activity (HCV replicon system); assay type: cell-based, Hepatitis C virus
Description: HCV replicon system was used to test the effects of compounds on the treatment and prevention of hepatitis C. The HCV replicon system has been acknowledged as a screening tool for new drugs (Lohmann, V. et al., 1999, Replication of subgenomic hepatitis C virus RNAs in hepatoma cell line, Science. Vol. 285, 110-113; Bartenschlager, R. 2002, Hepatitis C virus replicons: potential role for drug development, Nature Reviews/Drug Discovery. Vol. 1, 911-916; Vorlijk, J. M. et al., 2003, A replicon-based bioassay for the measurement of interferons in patients with chronic hepatitis C, Journal of Virological Methods. 110:201-209). The HCV replicon system includes a Huh-luc/neo-ET cell carrying I389luc-ubi-NS3-3′/ET gene construct which monitors the replicative capability of the HCV. In the HCV replicon system, a firefly luciferase-ubiquitin-neomycin fusion protein is expressed by the translation of the internal ribosomal entry site (IRES) of the HCV, and the hepatitis C viral nonstructural proteins (NS3-5B), which includes protease, helicase and polymerase, are expressed by the translation of the IRES of the encephalomyocarditis virus (EMCV).
The IRES of the hepatitis C virus or the hepatitis C viral nonstructural proteins consist of a replication complex. When the replication complex is affected by the candidate compound, the activity of the HCV replicon system is inhibited and the activity of the luciferase is reduced. Accordingly, the inhibition of the HCV can be estimated by determining the activity of the intensity of the luciferase expressed by the Huh-luc/noe-ET cell.
Inhibition of the HCV Replication by Determining the Firefly Luciferase Activity
(§1) Huh-luc/neo-ET cells with a concentration of 2.5×10^4 cells/100 μl/well were seeded into a 96 well culture plate (Corning Incorporation COSTAR, 3599) and placed into a cell incubator for culturing.
The oleanolic acid derivatives as listed in Table 2 were co-cultured with Huh-luc/neo-ET cells for 2 days. The mediums were washed twice by 100 μl of 1×PBS (1 mM KH2PO4, 10 mM Na2HPO4, 137 mM NaCl, 2.7 mM KCl) and PBS was removed. 35 μl of 1× passive lysis buffer (Promega, E1941) was added to the cells and vortexed for 10 minutes to thoroughly lysis the cells.
30 μl/well of the cell suspension was then added to a 96 well white plate (NUNC, 236108) for the measurement of the luciferase activity. Subsequently, 40 μl/well of luminescence analysis buffer and 20 μl/well of luminescence substrate (1 mM D-Luciferin) were added into the 96 well white plates. The luciferase activity (Rlu/s) was measured by a microplate luminescence meter (Berthold, MPL4) immediately.
The luciferase activity of the control was set as a standard to calculate the inhibition rates (%) of HCV of the experiment groups. The inhibition rates was calculated by the following formula: […]
After the test compounds were serial diluted and the inhibition rates of the HCV replication were determined at different concentrations, the concentration at 50% inhibition of the HCV replication (IC50) was calculated by grafit5 software (Erithacus Software).
For each experiment, 0.5 ng/ml and 0.1 ng/ml of the PEG IFN alpha-2a were used as positive controls for the IC50 test. Meanwhile, 1 μg/ml of cyclosporine A (CsA) was also used as a positive control for the IC50 test.

[2] = Cell cytotoxic test (MTT) on Huh-luc/neo-ET cells; assay type: cell-based; settings: human, concentration for 50% cell kill, two-day culture
Protocol: (§2) Cell Cytotoxic Test on Huh-luc/noe-ET Cells
as §1
(§3) The next day, the oleanolic acid derivatives as listed in the following Tables 1 and 2 were diluted with a DMEM culture medium to the concentrations of 28.73 μg/ml, 9.57 μg/ml, 3.19 μg/ml, 1.06 μg/ml, 0.35 μg/ml, 0.11 μg/ml, 0.039 μg/ml and 0.013 μg/ml, respectively, or diluted to the concentrations of 114.92 μg/ml, 38.33 μg/ml, 12.77 μg/ml, 4.25 μg/ml, 1.42 μg/ml, 0.46 μg/ml, 0.16 μg/ml and 0.057 μg/ml, respectively. The initial medium in the 96 well culture plate was sucked out by a vacuum pump (DOAT-704AA) without removing the cells. Then, the culture medium containing the oleanolic acid derivatives were added into the 96 well culture plate containing 100 μl/well of the cells as the experiment groups, while the untreated culture mediums were added to the cells as a control.
(§4) After a two-day culture, the medium was removed and each well containing cells was washed by 100 μl of 1×PBS (1 mM KH2PO4, 10 mM Na2HPO4, 137 mM NaCl, 2.7 mM KCl) twice. Precipitates were recorded and PBS was removed. 50 μl of the medium containing 0.5 mg/ml of MTT (Sigma, M2128) was added into each well of the 96 well culture plate. The 96 well culture plate was placed in a CO2 culture incubator for 1 hour. Subsequently, 150 μl of DMSO (Riedel-de Haül, 60153) was added to each well of the 96 well culture plate and vortexed (KS shaker Type 670) to thoroughly mix the resulting purple precipitates. The 96 well culture plate was then placed in a continuous wave length microwell plate analysis system (Molecular Devices, SPECTRAMAX 190) to measure the absorbance of cells at a wavelength of 560 nm.
(§5) The average absorbance of the control was set as 100% of the cell survival rates (%) to calculate the cell survival rates (%) of the experiment groups with different concentrations of the oleanolic acid derivatives.
(§6) The cell survival rate was calculated by the following formula: Absorbance of the experiment group/Absorbance of the control×100%
(§7) The data of the cell survival rates for all experiment groups were plotted on an x-y graph to see the distribution. A trend line was obtained. […]

[3] = test system: Huh-luc/neo-ET cells; experiment: Cell cytotoxic test (MTT) on Huh-luc/neo-ET cells; assay type: cell-based; settings: concentration for 15% cell kill, two-day culture
Protocol: as §2, §1, §3, §4, §5, §6, §7

With `C=CC(C)(CC/C=C(\CO)C(=O)OC1CC2(C(=O)OC3OCC(OC4CC(CO)C(O)C(OC5OC(CO)C(OC6OC(C)C(O)C(O)C6O)C(O)C5O)C4O)C(O)C3O)CCC3(C)C(=CCC4C5(C)CCC(OC6OC(CO)C(OC7OC(CO)C(O)C(OC8OCC(O)C(O)C8O)C7O)C(O)C6O)C(C)(C)C5CCC43C)C2CC1(C)C)OC1OC(C)C(O)C(O)C1O` (centres unmarked) [A27] the inhibition at 10 µM ([1]; Hepatitis C virus, Huh-luc/neo-ET, 48 h, compound concentration 10 μM, 2 days co-culture, luciferase activity, read-out: Inhibition rate (%)) was 96.9 ± 0.6%, the IC50 ([1]; Hepatitis C virus, concentration for 50% inhibition of the HCV replication, Huh-luc/neo-ET replicon cells, read-out: IC50) was 0.72 ± 0.07 µM and the “EW (CC50/IC50)” value ([1]; ratio of CC50/IC50) was 106.56. The CC50 at 2 days [2] was 76.7 µM and the CC15 [3] was 19.44 µM.
